Reference: patent US9464093B2, “Substituted imidazo[4',5':4,5]cyclopenta[1,2-e]pyrrolo[1,2-a]pyrazines and oxazolo[4',5':4,5]cyclopenta[1,2-e]pyrrolo[1,2-a]pyrazines for treating brain cancer” (Mayo Foundation for Medical Education and Research, priority 2012, dated 2016)
Where two headings read alike, the source gives them in different places.

How the values were obtained:
[1] = tested on: DU145 prostate cancer cells; assay: Cytotoxicity, MTT method, DU145; settings: read-out: Cytotoxicity (IC50, μM) DU145
Procedure: The cell suspension in the culture medium was plated into each well of 96-well plates (10,000 cells/well/100 μL). After 24 h, testing compounds were added, and then the plates were incubated for an additional 24 h in a humidified atmosphere of 5% CO2 at 37° C. […] The IC50 value was determined by linear interpolation from the growth inhibition curve.

[2] = tested on: MB-468 (triple-negative breast cancer cells); assay: Cytotoxicity, cell count, MB-468 (Example 4); settings: read-out: Cytotoxicity (IC50, μM) MB-468
Procedure: (§1) Raji cells and MB-468 cells were purchased from American Tissue Culture (Manassas, Va.). […] Cells were harvested and counted on the third day in a Coulter Particle Counter (Beckman-Coulter Corp.: Brea, Calif.). IC50 values were calculated using GraphPad Prism 5 (GraphPad Software Inc., La Jolla, Calif.).

[3] = tested on: Raji B cells (Burkitt's lymphoma cells); assay: Cytotoxicity, cell count, Raji (Example 4); settings: read-out: Cytotoxicity (IC50, μM) Raji
Procedure: as §1

Compound | IC50 ([1]; Homo sapiens, DU-145, 24 h) [µM] | IC50 [2] [µM] | IC50 ([3]; Homo sapiens, Raji) [µM] | further results
CN1C(=O)N[C@H]2[C@@H]3NC(=O)c4ccc(-c5ccc(N)cc5)n4[C@@H]3C[C@]21O [APAA, p-aminophenylagelastatin A] | > 10 |  |  | 
CN1C(=O)N[C@H]2[C@@H]3NC(=O)c4ccc(C5CC5)n4[C@@H]3C[C@]21O [CPAA, cyclopropylagelastatin A] | 5 | 1 | 0.4 | 
CCN1C(=O)N[C@H]2[C@@H]3NC(=O)c4cccn4[C@@H]3C[C@]21O [DeBEAA, debromoethylagelastatin A] | > 10 |  |  | 
CCN1C(=O)N[C@H]2[C@@H]3NC(=O)c4ccc(Br)n4[C@@H]3C[C@]21O [EAA, ethylagelastatin A] | > 10 |  |  | 
COc1ccc(CN2C(=O)N[C@H]3[C@@H]4NC(=O)c5ccc(Br)n5[C@@H]4C[C@]32O)cc1 [N-PMBAA, N-p-methoxybenzyl agelastatin A] | > 10 |  |  | 
CN1C(=O)N[C@H]2[C@@H]3NC(=O)c4ccc(-c5ccccc5)n4[C@@H]3C[C@]21O [PAA, phenylagelastatin A] | 6 | 1.5 | 3.8 | 
CNC(=O)N[C@H]1[C@@H]2NC(=O)c3ccc(Br)n3[C@@H]2C[C@H]1O [UAA, ureaagelastaitin A] |  | > 10 | > 10 | 
CN1C(=O)N[C@@H]2[C@H]3NC(=O)c4ccc(Br)n4[C@H]3C[C@@]21O [ent-AA] |  |  |  | IC50 ([1]; MTT, 24 h incubation): > 10 µM
debromoagelastatin A [DeBAA] |  |  |  | IC50 ([1]; MTT, 24 h incubation): > 10 µM; IC50 ([2]; cells counted on the third day): 3 µM; IC50 ([3]; cells counted on the third day): 3.16 µM
